Literature values, collected in patent publication US20250073301A1, “Delayed Release Compositions of Linaclotide” (Ironwood Pharmaceuticals, Inc., priority 2013, published 2025).
Ends that are not written are not given here.

Conditions: human volunteers, oral linaclotide

Sequence: CCEYCCNPACTGCY (cysteine pairing not given here) [linaclotide]
- oral dose found in feces: about 5%
